According to patent US10710968B2 (Hadasit Medical Research Services and Development Ltd., priority 2016, dated 2020):

Key:
QG56 cells (wt EGFR) = assay: Cell growth inhibition, methylene blue assay, QG56; assay type: cell-based, human; conditions: QG56, None (wt EGFR), 72 hours, mean±SD
Procedure: (§1) NCI-H1975 and HCC827 were obtained from the ATCC. QG56 cells were obtained from Prof. Alexander Levitzki's lab, The Silberman Institute of Life Sciences, the Hebrew University, Jerusalem. […] All media were supplemented with fetal bovine serum (FBS, (10%)) and antibiotics (penicillin 10^4 units/L, streptomycin 10 mg/L) (BI, Israel).
(§2) Four human NSCLC cell lines were selected: QG56, HCC827, NCI-H3255 and NCI-H1975. These cell lines harbor the prevailing EGFR variants identified in NSCLC patients, including the wild-type receptor (QG56 cells) and the two most common activating mutations in the TK domain of the receptor: an exon 19 deletion (ΔE746-A750) (HCC827 cells) and the L858R point mutation in exon 21 (NCI-H3255). NCI-H1975 cells were also selected, since on top of the activating L858R point mutation, these cells harbor the secondary T790M mutation in exon 20, which confers resistance to TKI-therapy.
(§3) The median inhibitory concentration (IC50) of the tested compound for cell growth of each cell line was then calculated using GraphPad Prism 5.0 software. Results are presented as mean±SD.

[1] = tested on: NCI-H3255 cells (EGFR L858R point mutation); assay: Cell growth inhibition, methylene blue assay, NCI-H3255; assay type: cell-based, human; conditions: NCI-H3255, Activating (L858R point mutation), 72 hours, mean±SD
Procedure: as §1, §2, §3

[2] = tested on: NCI-H1975 cells (EGFR L858R + T790M); assay: Cell growth inhibition, methylene blue assay, NCI-H1975; assay type: cell-based, human; conditions: NCI-H1975, Double (L858R + T790M), 72 hours, mean±SD
Procedure: as §1, §2, §3

[3] = Stability of the final formulation in solution (radio-TLC and HPLC); assay type: physicochemical; conditions: final formulation (ethanol/isotonic saline)
Procedure: In brief, a solution of ethylene 1,2-(bis) tosylate (11-13 mg) dissolved in anhydrous MeCN ([…]) was added to the dried [^18F]fluoride. The reaction is heated to 120° C. while stirring for 10 minutes, and the reaction mixture was thereafter cooled to 50° C. The ^18F-fluoroethyltosylate was then further diluted with 1 mL MeCN and transferred to a second reactor that was pre-stirred and heated under argon stream for 5 minutes with 9-11 mg of desmethylerlotinib dissolved in 0.6 mL of DMF and 6-8 mg of NaH. […]
The radiochemical purity was determined using analytical HPLC equipped with C18 analytical Luna column (5 μm, 4.6 mm>250 mm, Luna, phenomenex, Torrance, Calif., USA), with a variable wavelength UV detector operated at λ=254 nm, and a radioactivity detector with NaI crystals, and was routinely greater than 98%. […] Solvent residues were analyzed by GC, using a 1 μL injection of the final product, and compared to a standard solution containing 0.04% acetonitrile and 0.5% acetone. […]

HCC827 tumor = assay: PET/CT scans of HCC827 tumor-bearing mice; assay type: in vivo
Procedure: (§4) Dynamic (1 hour) PET scans are performed using Inveon™ MM PET-CT small animal-dedicated scanner (Siemens Medical Solutions, USA). […] Using image analysis tools, volume of interests (VOIs) are drawn for selected organs based on the PET and CT images, and the kinetics of radioactivity distribution in vivo (time-activity curves, (TACs)) is determined for these organs, and primarily for the NSCLC xenografts. The standardized uptake values (SUVs) of each radiolabeled compound in tumors are calculated and compared between the different tumors.
(§5) In additional PET/CT studies, five QG56 (erlotinib-insensitive) and five HCC827 (erlotinib-sensitive) tumor-bearing mice were scanned for 60 minutes following i.v. injection of [^18F]6-O-FEE (7.14±0.7 Mbq).

QG56 tumor = assay: PET/CT scans of QG56 tumor-bearing mice; assay type: in vivo; conditions: QG56 tumors, 60 minutes after i.v. injection
Procedure: as §4, §5

| SMILES | IC50 (QG56 cells (wt EGFR)) | IC50 [1] | IC50 [2] | stability in solution [3] | higher uptake in HCC827 tumors compared to QG56 tumors (HCC827 tumor; 60 minutes after i.v. injection, mice, p=0.0072) | reduction of tumor SUV by erlotinib in excess (HCC827 tumor; HCC827 tumor-bearing mice, erlotinib 6.1±0.3 mg/kg 10 minutes prior, p=0.018) | tumor SUV (HCC827 tumor; HCC827 tumor-bearing mice, erlotinib in excess (6.1±0.3 mg/kg) 10 minutes prior to injection) | tumor SUV (HCC827 tumor; HCC827 tumor-bearing mice, without erlotinib pre-administration (blocking comparison)) | tumor SUV (HCC827 tumor; HCC827 tumors, 60 minutes after i.v. injection, mice) | higher uptake in HCC827 tumor compared to NCI-H1975 tumor (HCC827 tumor; preliminary PET/CT study, i.v. injection, 60 minutes scan, mice) | tumor SUV (QG56 tumor) |
| --- | --- | --- | --- | --- | --- | --- | --- | --- | --- | --- | --- |
| C#Cc1cccc(Nc2ncnc3cc(OCCOC)c(OCCF)cc23)c1 [6-O-FEE, 6-O-fluoroethylerlotinib] | 14.4 ± 5 µM | 0.033 ± 0.04 µM | 3.6 ± 1 µM | – | – | – | – | – | – | – | – |
| C#Cc1cccc(Nc2ncnc3cc(OCCOC)c(OCC[18F])cc23)c1 [[^18F]6-O-FEE, [^18F]6-fluoroethylerlotinib] | – | – | – | remained stable in solution for over four hours | 2.5 fold | about 40% | 0.414 | 0.704 | 0.70 | 2.5-3 fold | 0.28 |
